Assay results reported in patent EP0971601B1, “DECAFFEINATED MATE EXTRACTS AND THE USE THEREOF” (Sensient Flavors Italy S.R.L., priority 1997, dated 1998).
Values after ≈ are worked out from the molar mass of the structure shown.

Experiments:
rat erythrocytes (RBC) = assay: UVB-induced lysis of erythrocytes (turbidimetric determination at 710 nm); type: cell-based; conditions: Erythrocyte, light or radiation study, 1.5 h, determined at 90 min irradiation, read-out: IC50, UVB-induced hemolysis
Experimental: • Fig.1 - HPLC profile of the decaffeinated aqueous extract of Maté. Chromatographic conditions: reverse phase column LC-18; mobile phase: linear gradient of 100% A (0.0127 N H3PO4/CH3CN/Ethylacetate 96.5'/3/0.5) to 30% B (CH3CN) in 30 min; flow rate: 1 ml/min; detection: UV-DAD 330 nm. […] Experimental conditions: Finnigan LCQ mass spectrometer; reverse phase column LC-18; mobile phase: linear gradient of 100% A (95% ammonium formiate / 5% CH3CN, pH 4.5 with HCOOH) to 30% B (95% CH3CN / 5% ammonium formiate, pH 4.5 with HCOOH) in 30 min; flow rate: 1 ml/min; negative ion detection. […] Values are the means ± S.D. of 5 determinations. • Fig.10 - Protective effect of decaffeinated aqueous extract of Maté on UVB-induced hemolysis. Red blood cells (0.2% suspensions) were exposed to UVB radiation for 210 min in the absence and in presence of different concentrations of decaffeinated aqueous extract of Maté; percentage hemolysis was turbidimetrically determined at 710 nm at 30 min intervals. Values are the means ± S.D. of 5 determinations.
Finally we evaluated in a cellular model (0.2% erythrocyte suspensions) the protective effect of the decaffeinated aqueous extract of Matè on the peroxidative stress induced by UVB exposure (0.4-4 J/cm^2), and monitoring the time-course of hemolysis (turbidimetric determination at 710 nm) at 30 min intervals.

[1] = DPPH stable free radical quenching (loss in absorbance at 517 nm); type: biochemical; conditions: methanol solution of DPPH, absorbance 517 nm
Text: The activity of the extract in quenching the stable free radical DPPH through hydrogen transferring reaction, has been tested by monitoring the loss in absorbance at 517 nm of a methanol solution of DPPH [18] in the presence and the absence of increasing concentrations of Maté extract.

## O=C(/C=C/c1ccc(O)c(O)c1)O[C@@H]1C[C@](O)(C(=O)O)C[C@@H](O)[C@H]1O [Chlorogenic acid, 3-O-caffeoyl quinic acid]
Rat erythrocytes (RBC)
  IC50: 3.2 µg/mL (≈ 9.03 µM)

## O=C1O[C@H]([C@@H](O)CO)C(O)=C1O [ascorbic acid]
[1]
  IC50, quenching DPPH radical: 19 µg/mL (≈ 108 µM)

## vitamin E
[1]
  IC50, quenching DPPH radical: 19 µg/mL
